Test results from patent publication US7504380B2, “Antimicrobial peptide isolated from halocynthia aurantium” (Industry-Academic Cooperation Foundation, Hoseo University, priority 2002, dated 2009).

Legend:
[1] = tested on: multi drug resistance Pseudomonas aeruginosa (MDRPA); assay: ultra-sensitive radial diffusion assay, MDRPA; format: cell-based; details: according to the concentration of the peptides; FIG. 9B, 9D
Procedure: (§1) In order to measure the antimicrobial activity of acid extracts of Halocynthia aurantium obtained in the above Example <1-1>, the present inventors performed ultrasensitive radial diffusion assay. Particularly, analyzed 150 fractions eluted in the above Example <1-1> 5 times each. Took 100 μl from 2 ml of each fraction and concentrated thereof with a vacuum centrifugation (Centra Evaporator, Bioneer, Korea), which was suspended in 5 μl of 0.01% acetic acid solution. Meanwhile, prepared agarose plate including wells 3 mm in diameter by adding methicillin resistance Staphylococcus aureus (referred as “MRSA” hereinafter, Seoul Women's University, Korea CCARM3001) of mid-logarithmic phase to gel comprising sterilized citrate phosphate buffer (9 mM sodium phosphate, 1 mM sodium citrate, pH 7.4), 1% (w/v) type 1 agarose (low electroendosmosis agarose) (A 6013, Sigma) and 3% tryptic soy broth (TSB, Difco, Detroit, Mich., USA). Loaded the above fractions onto the wells of agarose plate containing the above bacteria. Reacted thereof for 3 hours to make the peptides spread into the agarose gel. Added 10 ml of overnutrition medium comprising 6% TSB and 1% agarose gel thereto. Cultured the above plate for overnight until the colonies of the above bacteria were formed. Confirmed the antimicrobial activity of the loaded peptide by measuring the diameter of clearing zone formed around the loaded peptide fraction.
(§2) The present inventors performed ultra-sensitive radical diffusion assay with synthetic peptides prepared in the above Example <2-2>. Particularly, measured antimicrobial activity of each 15Hc, di-15Hc, 18Hc, di-18Hc, halocidin, magainin 1 (Sigma) (control group) and buforin 2 (Sigma) (comparative group) against MRSA and multi drug resistance Pseudomonas aeruginosa (referred as “MDRPA” hereinafter)(Seoul Women's University CCARM2002) according to the concentration of the peptides.

human erythrocytes = format: cell-based
Procedure: In order to investigate […] of halocidin, the present inventors performed hemolytic assay. Particularly, mixed 20 μl of peptide diluted to 100, 50, 25, 12.5, 6.25, 3.125 μg/ml and 180 μl of 2.5% (V/V) human erythrocytes in PBS. Used melittin (Sigma) and clavanin AK, a congener in which clavanin A residue was substituted, for comparative group, and 0.01% acetic acid for control group. After reacting the mixture at 37° C. for 30 minutes, added 600 μl of PBS into each tube. Centrifuged the solution at 10,000 g for 3 minutes and separated supernatants. Measured OD at 540 nm and calculated the hemolytic activity (%) according to the below <Mathematical Formula 1>.

[2] = tested on: Gram negative bacteria such as Pseudomonas aeruginosa, Salmonella cholerasuis, Salmonella parotyphi A, E. coli K112 and E. coli DH5α; assay: radial diffusion assay, Gram-negative bacteria; format: cell-based; details: FIG. 12-14
[3] = tested on: Gram-positive bacteria such as Staphylococcus aureus, Micrococcus luteus, Enterococcus faecalis, Bacillus subtilus and MRSA; assay: radial diffusion assay, Gram-positive bacteria; format: cell-based; details: FIG. 15-17
Procedure: In order to measure the antimicrobial activity of acid extracts of Halocynthia aurantium obtained in the above Example <1-1>, the present inventors performed ultrasensitive radial diffusion assay. Particularly, analyzed 150 fractions eluted in the above Example <1-1> 5 times each. Took 100 μl from 2 ml of each fraction and concentrated thereof with a vacuum centrifugation (Centra Evaporator, Bioneer, Korea), which was suspended in 5 μl of 0.01% acetic acid solution. Meanwhile, prepared agarose plate including wells 3 mm in diameter by adding methicillin resistance Staphylococcus aureus (referred as “MRSA” hereinafter, Seoul Women's University, Korea CCARM3001) of mid-logarithmic phase to gel comprising sterilized citrate phosphate buffer (9 mM sodium phosphate, 1 mM sodium citrate, pH 7.4), 1% (w/v) type 1 agarose (low electroendosmosis agarose) (A 6013, Sigma) and 3% tryptic soy broth (TSB, Difco, Detroit, Mich., USA). Loaded the above fractions onto the wells of agarose plate containing the above bacteria. Reacted thereof for 3 hours to make the peptides spread into the agarose gel. Added 10 ml of overnutrition medium comprising 6% TSB and 1% agarose gel thereto. Cultured the above plate for overnight until the colonies of the above bacteria were formed. […]

[4] = tested on: methicillin resistance Staphylococcus aureus (MRSA); assay: ultrasensitive radial diffusion assay, MRSA; format: cell-based; set-up: antimicrobial activity according to pH, MRSA / antimicrobial activity according to NaCl, MRSA: unit not given here; details: for antimicrobial activity to MRSA strain (diameter of clear zone): according to the concentration of the peptides, FIG. 9A, 9C
Procedure: as §1, §2
(§3) Particularly, adjusted the pH of media to 7.4, 6.5 and 5.5 respectively by adding HCl, which was checked with a pH meter, and performed radical diffusion assay with the same method as the above Example 1 to investigate the antimicrobial activity to MRSA and Enterococcus faecalis.
(§4) Particularly, changed the basic condition of media by adding 100 mM NaCl, 150 mM NaCl and 200 mM NaCl respectively, and investigated the antimicrobial activity to MRSA and Enterococcus faecalis by radical diffusion assay.

Enterococcus faecalis = assay: radial diffusion assay, Enterococcus faecalis; format: cell-based; set-up: unit not given here
Procedure: as §1, §3, §4

MRSA strain = assay: colony counting assay, MRSA; format: cell-based, Staphylococcus aureus; details: peptide 5 μg/ml, 5 and 15 minutes; FIG. 10
Procedure: (§5) In order to investigate antimicrobial activity of halocidin, the present inventors performed colony counting assay. Particularly, adjusted the final concentration of the peptide to 5 μg/ml by mixing the peptide and MRSA strain or MDRPA strain of mid-log phase in sterilized 10 mM sodium phosphate buffer (pH 7.4) containing 0.3 mg/id of TSB powder. Adjusted the final volume of the above mixture to 100 μl, and then let it be pre-reacted in a 37° C. shaking water bath for 5 and 15 minutes each. Collected 20 μl of pre-reacted solution and loaded thereof onto 1.5% bacto-agar plate (Difco). Induced reaction for overnight and counted the number of formed colonies on the above plate, from which measured the antimicrobial activity. Used magainin 1 and buforin 2 for comparative group, and 0.01% acetic acid for control group.

MDRPA strain = assay: colony counting assay, MDRPA; format: cell-based, Pseudomonas aeruginosa; details: peptide 5 μg/ml, 5 and 15 minutes; FIG. 10
Procedure: as §5

Substance | antimicrobial activity to MDRPA strain (diameter of clear zone) [1] | hemolytic activity (human erythrocytes) [%] | antimicrobial activity to Gram-negative bacteria [2] | antimicrobial activity to Gram-positive bacteria [3] | antimicrobial activity according to NaCl, MRSA ([4]; NaCl 100 mM) | antimicrobial activity according to NaCl, MRSA ([4]; NaCl 150 mM) | antimicrobial activity according to NaCl, MRSA ([4]; NaCl 200 mM) | antimicrobial activity to MRSA strain (diameter of clear zone) [4] | antimicrobial activity according to pH, MRSA ([4]; pH = 5.5) | antimicrobial activity according to pH, MRSA ([4]; pH = 6.5) | antimicrobial activity according to pH, MRSA ([4]; pH = 7.4) | antimicrobial activity according to NaCl, Enterococcus faecalis (Enterococcus faecalis; NaCl 100 mM) | antimicrobial activity according to NaCl, Enterococcus faecalis (Enterococcus faecalis; NaCl 150 mM) | antimicrobial activity according to NaCl, Enterococcus faecalis (Enterococcus faecalis; NaCl 200 mM) | antimicrobial activity according to pH, Enterococcus faecalis (Enterococcus faecalis; pH = 5.5) | antimicrobial activity according to pH, Enterococcus faecalis (Enterococcus faecalis; pH = 6.5) | antimicrobial activity according to pH, Enterococcus faecalis (Enterococcus faecalis; pH = 7.4) | antimicrobial activity by colony counting, MRSA (MRSA strain) | antimicrobial activity by colony counting, MDRPA (MDRPA strain)
15Hc: 15-amino-acid monomer of halocidin; 18Hc lacking three N-terminal amino acids, SEQ. ID. No 2 (WLNALLHHGLNCAKG; PEPTIDE (1)..(1) 15mer of halocydin; listed as Halocynthia aurantium) [Peptide 15Hc, 15-amino-acid monomer of halocidin; ID; No 2] | higher antimicrobial activity than comparative group | 0 | hardly showed or had minimum antimicrobial activity | low antimicrobial activity | – | – | – | – | – | – | – | – | – | – | – | – | – | – | –
Buforin 2 | proved to have antimicrobial activity | – | – | – | >64 | >64 | >64 | proved to have antimicrobial activity | >64 | >64 | >64 | >64 | >64 | >64 | >64 | >64 | >64 | – | –
KWLNALLHHGLNCAKGVLA (PEPTIDE (1)..(19) 19mer of halocydin; listed as Halocynthia aurantium) [K(18 + 1)Hc, ID; No 9] | – | – | – | – | 16-32 | 16-32 | 32-64 | – | 32-64 | 16-32 | 16-32 | 16-32 | 16-32 | 16-32 | 16-32 | 16-32 | 8-16 | – | –
Magainin 1 (GIGKFLHSAGKFGKAFVGEIMKS; Magainin-1; UniProt P11006 37-59, looked up) [magainin 1 (Sigma), control/comparative antimicrobial peptide] | proved to have antimicrobial activity | – | – | – | >64 | >64 | >64 | – | >64 | >64 | >64 | >64 | >64 | >64 | >64 | >64 | >64 | – | –
Secrofin A | – | – | – | – | >64 | >64 | >64 | – | >64 | >64 | >64 | >64 | >64 | >64 | >64 | >64 | >64 | – | –
WLNALLHHGLNCAKGVLA (PEPTIDE (1)..(1) 18mer of halocydin; listed as Halocynthia aurantium) [Peptide 18Hc, ID; No 1] | higher antimicrobial activity than comparative group | 9 | hardly showed or had minimum antimicrobial activity | low antimicrobial activity | – | – | – | higher antimicrobial activity than buforin 2 | – | – | – | – | – | – | – | – | – | high antimicrobial activity | high antimicrobial activity
